Measured values as given in ChEMBL document CHEMBL4387741, “Optimization of novel reversible Bruton's tyrosine kinase inhibitors identified using Tethering-fragment-based screens” (Bioorg Med Chem, 2019).

Tests used:
[1] = Plasma clearance in Sprague-Dawley rat at 1 mg/kg, iv relative to hepatic blood flow; type: ADME, organism-based; settings: in vivo
[2] = biological target: Beta-adrenergic receptor kinase 1 (Homo sapiens) (UniProt P25098); assay: Inhibition of wild-type human full length GRK2 (M1 to L689 residues) expressed in mammalian expression system at 1 uM by Kinomescan method relative to control
Beta-adrenergic receptor kinase 1 (Homo sapiens), sequence (P25098 whole entry, the tested form may be a part): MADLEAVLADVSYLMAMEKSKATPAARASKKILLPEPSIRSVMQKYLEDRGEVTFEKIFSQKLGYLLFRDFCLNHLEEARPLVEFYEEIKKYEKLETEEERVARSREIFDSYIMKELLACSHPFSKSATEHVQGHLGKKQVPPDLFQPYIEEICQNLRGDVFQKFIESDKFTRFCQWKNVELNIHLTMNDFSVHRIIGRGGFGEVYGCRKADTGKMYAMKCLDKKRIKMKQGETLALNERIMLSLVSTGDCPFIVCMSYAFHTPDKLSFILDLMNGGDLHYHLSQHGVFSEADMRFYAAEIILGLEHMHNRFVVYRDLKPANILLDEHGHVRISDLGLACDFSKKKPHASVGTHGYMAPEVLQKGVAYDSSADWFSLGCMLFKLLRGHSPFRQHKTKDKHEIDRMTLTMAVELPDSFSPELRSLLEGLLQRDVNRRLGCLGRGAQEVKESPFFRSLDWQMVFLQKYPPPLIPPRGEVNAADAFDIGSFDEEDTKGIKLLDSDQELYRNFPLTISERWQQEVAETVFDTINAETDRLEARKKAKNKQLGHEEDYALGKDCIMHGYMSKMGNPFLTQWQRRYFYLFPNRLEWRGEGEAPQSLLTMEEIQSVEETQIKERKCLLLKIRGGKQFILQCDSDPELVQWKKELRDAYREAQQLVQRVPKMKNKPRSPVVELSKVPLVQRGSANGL

[3] = test system: Mast/stem cell growth factor receptor Kit (Homo sapiens), P10721 [D816V]; assay: Inhibition of human partial length KIT D816V mutant (I571 to D952 residues) expressed in bacterial expression system at 1 uM by Kinomescan method relative to control
Mast/stem cell growth factor receptor Kit (Homo sapiens), P10721 [D816V], sequence (P10721 whole entry D816V, the tested form may be a part): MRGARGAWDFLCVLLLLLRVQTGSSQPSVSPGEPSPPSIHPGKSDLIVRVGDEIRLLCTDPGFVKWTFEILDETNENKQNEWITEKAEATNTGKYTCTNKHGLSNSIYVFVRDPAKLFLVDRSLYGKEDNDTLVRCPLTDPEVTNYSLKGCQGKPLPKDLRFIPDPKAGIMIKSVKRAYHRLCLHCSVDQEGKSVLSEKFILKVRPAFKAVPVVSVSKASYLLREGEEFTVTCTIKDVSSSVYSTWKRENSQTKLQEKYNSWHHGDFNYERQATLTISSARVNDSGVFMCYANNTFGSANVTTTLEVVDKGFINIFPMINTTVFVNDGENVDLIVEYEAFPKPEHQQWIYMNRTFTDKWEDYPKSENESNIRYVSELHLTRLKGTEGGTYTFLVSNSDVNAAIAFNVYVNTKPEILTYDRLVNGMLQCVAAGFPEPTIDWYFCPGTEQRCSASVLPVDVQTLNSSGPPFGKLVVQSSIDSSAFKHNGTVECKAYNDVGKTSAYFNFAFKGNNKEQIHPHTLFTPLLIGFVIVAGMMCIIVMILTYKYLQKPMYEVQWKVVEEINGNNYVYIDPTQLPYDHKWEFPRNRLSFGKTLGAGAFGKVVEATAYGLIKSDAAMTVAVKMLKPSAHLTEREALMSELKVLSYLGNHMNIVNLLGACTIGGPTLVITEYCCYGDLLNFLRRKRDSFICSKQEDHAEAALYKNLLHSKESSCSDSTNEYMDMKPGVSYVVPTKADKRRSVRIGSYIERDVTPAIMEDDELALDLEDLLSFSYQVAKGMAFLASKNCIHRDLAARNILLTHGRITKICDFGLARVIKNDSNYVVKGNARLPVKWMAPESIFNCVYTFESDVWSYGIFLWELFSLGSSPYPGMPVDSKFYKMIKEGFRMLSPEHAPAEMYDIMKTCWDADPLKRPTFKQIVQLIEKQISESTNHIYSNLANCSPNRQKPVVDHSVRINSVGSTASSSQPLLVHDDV

[4] = test system: Receptor-type tyrosine-protein kinase FLT3 (Homo sapiens), P36888 [UNDEFINED MUTATION]; assay: Inhibition of human partial length FLT3 ITD/F691L double mutant expressed in bacterial expression system at 1 uM by Kinomescan method relative to control
[5] = biological target: Misshapen-like kinase 1 (Homo sapiens) (UniProt Q8N4C8); assay: Inhibition of wild-type human partial length MINK (M1 to K312 residues) expressed in mammalian expression system at 1 uM by Kinomescan method relative to control
[6] = biological target: Mitogen-activated protein kinase 4 (Homo sapiens) (UniProt P31152); assay: Inhibition of wild-type human partial length ERK4 (M1 to L365 residues) expressed in bacterial expression system at 1 uM by Kinomescan method relative to control
[7] = biological target: SNF-related serine/threonine-protein kinase (Homo sapiens) (UniProt Q9NRH2); assay: Inhibition of wild-type human partial length SNRK (M1 to E339 residues) expressed in mammalian expression system at 1 uM by Kinomescan method relative to control
[8] = biological target: Tyrosine-protein kinase TXK (Homo sapiens) (UniProt P42681); assay: Inhibition of wild-type human partial length TXK (L238 to W527 residues) expressed in bacterial expression system at 1 uM by Kinomescan method relative to control
[9] = biological target: Ribosomal protein S6 kinase alpha-4 (Homo sapiens) (UniProt O75676); assay: Inhibition of wild-type human partial length C-terminal RPS6KA4 kinase domain 2 (M375 to T705 residues) expressed in mammalian expression system at 1 uM by Kinomescan method relative to control
[10] = biological target: Ephrin type-A receptor 1 (Homo sapiens) (UniProt P21709); assay: Inhibition of wild-type human partial length EPHA1 (V588 to I913 residues) expressed in bacterial expression system at 1 uM by Kinomescan method relative to control
[11] = biological target: Serine/threonine-protein kinase B-raf (Homo sapiens) (UniProt P15056); assay: Inhibition of wild-type human partial length BRAF (S429 to E741 residues) expressed in mammalian expression system at 1 uM by Kinomescan method relative to control
[12] = biological target: Calcium/calmodulin-dependent protein kinase type II subunit delta (Homo sapiens) (UniProt Q13557); assay: Inhibition of wild-type human partial length CAMK2D (M1 to E329 residues) expressed in bacterial expression system at 1 uM by Kinomescan method relative to control
Calcium/calmodulin-dependent protein kinase type II subunit delta (Homo sapiens), sequence (Q13557 whole entry, the tested form may be a part): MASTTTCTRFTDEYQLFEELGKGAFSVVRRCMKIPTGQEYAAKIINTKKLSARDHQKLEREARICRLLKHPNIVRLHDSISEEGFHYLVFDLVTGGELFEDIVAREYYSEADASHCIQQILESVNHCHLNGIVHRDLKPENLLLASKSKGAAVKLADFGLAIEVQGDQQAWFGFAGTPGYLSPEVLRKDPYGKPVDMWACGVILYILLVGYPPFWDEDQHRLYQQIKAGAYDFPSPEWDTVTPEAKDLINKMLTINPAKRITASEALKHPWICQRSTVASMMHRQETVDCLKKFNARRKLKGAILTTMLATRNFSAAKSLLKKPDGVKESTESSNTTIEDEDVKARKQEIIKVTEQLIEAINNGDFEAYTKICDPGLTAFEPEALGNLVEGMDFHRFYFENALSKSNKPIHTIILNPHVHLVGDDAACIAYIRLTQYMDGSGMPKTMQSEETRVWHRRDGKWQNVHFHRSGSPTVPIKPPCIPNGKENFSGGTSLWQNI

[13] = test system: ALK tyrosine kinase receptor (Homo sapiens), Q9UM73 [C1156Y]; assay: Inhibition of wild-type human partial length ALK C1156Y mutant (I1088 to E1409 residues) expressed in mammalian expression system at 1 uM by Kinomescan method relative to control
ALK tyrosine kinase receptor (Homo sapiens), Q9UM73 [C1156Y], sequence (Q9UM73 whole entry C1156Y, looked up, the tested form may be a part): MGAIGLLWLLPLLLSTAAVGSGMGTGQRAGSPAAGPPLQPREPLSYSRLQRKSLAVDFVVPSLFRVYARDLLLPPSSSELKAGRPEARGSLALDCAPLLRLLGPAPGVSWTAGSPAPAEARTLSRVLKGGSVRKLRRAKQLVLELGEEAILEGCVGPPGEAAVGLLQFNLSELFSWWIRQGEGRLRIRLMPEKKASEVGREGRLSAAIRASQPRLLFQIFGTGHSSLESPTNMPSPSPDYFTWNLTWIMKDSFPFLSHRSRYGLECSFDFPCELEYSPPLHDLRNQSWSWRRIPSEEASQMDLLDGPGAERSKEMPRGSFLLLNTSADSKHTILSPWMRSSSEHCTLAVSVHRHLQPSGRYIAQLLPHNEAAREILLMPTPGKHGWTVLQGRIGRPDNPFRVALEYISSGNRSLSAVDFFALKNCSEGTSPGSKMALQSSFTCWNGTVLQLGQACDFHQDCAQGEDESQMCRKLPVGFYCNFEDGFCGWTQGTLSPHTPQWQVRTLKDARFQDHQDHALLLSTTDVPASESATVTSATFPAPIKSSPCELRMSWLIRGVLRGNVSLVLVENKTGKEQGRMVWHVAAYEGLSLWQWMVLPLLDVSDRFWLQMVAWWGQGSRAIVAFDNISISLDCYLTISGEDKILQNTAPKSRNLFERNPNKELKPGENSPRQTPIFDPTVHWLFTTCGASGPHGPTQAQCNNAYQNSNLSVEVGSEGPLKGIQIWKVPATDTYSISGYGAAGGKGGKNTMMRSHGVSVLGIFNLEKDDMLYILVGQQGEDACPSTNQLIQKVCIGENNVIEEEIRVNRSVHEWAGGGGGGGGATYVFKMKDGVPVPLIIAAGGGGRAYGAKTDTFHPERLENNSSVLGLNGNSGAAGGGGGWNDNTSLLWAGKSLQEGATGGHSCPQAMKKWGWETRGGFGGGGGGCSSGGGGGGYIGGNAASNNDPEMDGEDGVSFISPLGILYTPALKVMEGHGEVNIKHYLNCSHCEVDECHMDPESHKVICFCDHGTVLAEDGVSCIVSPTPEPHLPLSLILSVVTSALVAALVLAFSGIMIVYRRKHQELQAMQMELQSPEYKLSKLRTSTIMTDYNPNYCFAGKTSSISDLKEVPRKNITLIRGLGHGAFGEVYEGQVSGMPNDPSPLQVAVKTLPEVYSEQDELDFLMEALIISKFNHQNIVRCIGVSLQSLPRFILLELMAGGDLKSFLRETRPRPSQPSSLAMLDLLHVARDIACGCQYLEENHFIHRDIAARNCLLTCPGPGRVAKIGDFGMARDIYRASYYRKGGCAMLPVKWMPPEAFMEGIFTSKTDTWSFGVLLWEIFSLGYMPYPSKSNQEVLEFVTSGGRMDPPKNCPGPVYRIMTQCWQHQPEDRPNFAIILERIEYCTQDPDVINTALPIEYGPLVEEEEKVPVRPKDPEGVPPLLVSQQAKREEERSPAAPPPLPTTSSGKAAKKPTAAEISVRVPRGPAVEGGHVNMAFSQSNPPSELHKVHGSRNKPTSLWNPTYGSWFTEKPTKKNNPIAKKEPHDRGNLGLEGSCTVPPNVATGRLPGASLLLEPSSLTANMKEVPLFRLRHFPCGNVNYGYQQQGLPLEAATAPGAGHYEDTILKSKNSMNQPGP

[14] = biological target: Serine/threonine-protein kinase SIK3 (Homo sapiens) (UniProt Q9Y2K2); assay: Inhibition of wild-type human partial length QSK (A90 to L395 residues) expressed in mammalian expression system at 10 uM by Kinomescan method relative to control
[15] = biological target: Serine/threonine-protein kinase WNK4 (Homo sapiens) (UniProt Q96J92); assay: Inhibition of wild-type human partial length WNK4 (A31 to D461 residues) expressed in mammalian expression system at 10 uM by Kinomescan method relative to control
[16] = biological target: Serine/threonine-protein kinase LATS2 (Homo sapiens) (UniProt Q9NRM7); assay: Inhibition of wild-type human partial length LATS2 (Q641 to V1088 residues) expressed in mammalian expression system at 10 uM by Kinomescan method relative to control
[17] = biological target: Platelet-derived growth factor receptor beta (Homo sapiens) (UniProt P09619); assay: Inhibition of wild-type human partial length PDGFRB (V582 to Y1009 residues) expressed in bacterial expression system at 10 uM by Kinomescan method relative to control
[18] = biological target: Mitogen-activated protein kinase 9 (Homo sapiens) (UniProt P45984); assay: Inhibition of wild-type human full length JNK2 (M1 to Q382 residues) expressed in mammalian expression system at 10 uM by Kinomescan method relative to control
[19] = biological target: Receptor-type tyrosine-protein kinase FLT3 (Homo sapiens) (UniProt P36888); assay: Inhibition of wild-type human partial length autoinhibited FLT3 (H564 to Y969 residues) expressed in mammalian expression system at 10 uM by Kinomescan method relative to control
[20] = biological target: Serine/threonine-protein kinase RIO3 (Homo sapiens) (UniProt O14730); assay: Inhibition of wild-type human full length RIOK3 (M1 to E519 residues) expressed in bacterial expression system at 10 uM by Kinomescan method relative to control
[21] = biological target: Tyrosine-protein kinase Fes/Fps (Homo sapiens) (UniProt P07332); assay: Inhibition of wild-type human partial length FES (I527 to R822 residues) expressed in bacterial expression system at 10 uM by Kinomescan method relative to control
[22] = biological target: Tyrosine-protein kinase ZAP-70 (Homo sapiens) (UniProt P43403); assay: Inhibition of wild-type human partial length ZAP70 (D20 to G299 residues) expressed in mammalian expression system at 10 uM by Kinomescan method relative to control
Tyrosine-protein kinase ZAP-70 (Homo sapiens), sequence (P43403 whole entry, the tested form may be a part): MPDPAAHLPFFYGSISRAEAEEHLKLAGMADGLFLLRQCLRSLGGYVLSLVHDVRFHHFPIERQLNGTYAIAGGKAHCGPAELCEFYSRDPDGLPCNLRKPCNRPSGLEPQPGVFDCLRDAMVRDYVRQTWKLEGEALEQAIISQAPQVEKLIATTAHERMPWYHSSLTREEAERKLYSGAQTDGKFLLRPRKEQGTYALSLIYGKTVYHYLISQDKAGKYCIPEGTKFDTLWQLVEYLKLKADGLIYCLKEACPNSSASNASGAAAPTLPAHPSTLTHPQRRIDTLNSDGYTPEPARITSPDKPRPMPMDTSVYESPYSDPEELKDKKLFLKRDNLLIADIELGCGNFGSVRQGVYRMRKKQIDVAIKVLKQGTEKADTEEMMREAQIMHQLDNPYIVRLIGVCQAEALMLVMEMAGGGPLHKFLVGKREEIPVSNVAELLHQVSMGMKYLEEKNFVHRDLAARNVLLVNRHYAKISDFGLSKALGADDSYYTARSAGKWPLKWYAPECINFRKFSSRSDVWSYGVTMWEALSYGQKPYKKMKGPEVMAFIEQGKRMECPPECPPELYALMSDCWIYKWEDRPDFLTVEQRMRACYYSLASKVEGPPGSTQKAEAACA

[23] = biological target: Macrophage-stimulating protein receptor (Homo sapiens) (UniProt Q04912); assay: Inhibition of wild-type human partial length MST1R (I1057 to L1363 residues) expressed in bacterial expression system at 10 uM by Kinomescan method relative to control
[24] = biological target: Ephrin type-A receptor 5 (Homo sapiens) (UniProt P54756); assay: Inhibition of wild-type human partial length EPHA5 (T627 to V930 residues) expressed in bacterial expression system at 10 uM by Kinomescan method relative to control
[25] = test system: eIF-2-alpha kinase GCN2 (Homo sapiens), Q9P2K8 [S808G]; assay: Inhibition of wild-type human partial length GCN2 S808G mutant kinase domain 2 (R585 to T1018 residues) expressed in bacterial expression system at 10 uM by Kinomescan method relative to control
[26] = biological target: Aurora kinase C (Homo sapiens) (UniProt Q9UQB9); assay: Inhibition of wild-type human full length AURKC (M1 to S275 residues) expressed in bacterial expression system at 10 uM by Kinomescan method relative to control
Aurora kinase C (Homo sapiens), sequence (Q9UQB9 whole entry, the tested form may be a part): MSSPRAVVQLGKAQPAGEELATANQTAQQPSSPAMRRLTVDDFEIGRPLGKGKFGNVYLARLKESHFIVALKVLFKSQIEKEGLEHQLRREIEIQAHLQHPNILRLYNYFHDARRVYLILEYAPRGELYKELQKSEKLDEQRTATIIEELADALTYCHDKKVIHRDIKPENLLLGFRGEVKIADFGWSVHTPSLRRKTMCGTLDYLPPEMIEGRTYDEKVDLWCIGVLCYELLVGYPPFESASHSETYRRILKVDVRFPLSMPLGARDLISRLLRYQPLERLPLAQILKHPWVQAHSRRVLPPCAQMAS

[27] = biological target: Serine/threonine-protein kinase PknB (Mycobacterium tuberculosis) (UniProt P9WI81); assay: Inhibition of wild-type Mycobacterium tuberculosis partial length PKNB (M1 to G279 residues) expressed in mammalian expression system at 10 uM by Kinomescan method relative to control

## O=C(Nc1cccc([C@@H]2CN(c3ncnc4[nH]ccc34)CCN2CCO)c1)Nc1c(F)cccc1N1CCCC1
[1]
  CL: 11%
[2]
  inhibition: 96%
[3]
  inhibition: 2%
[4]
  inhibition: 4.6%
[5]
  inhibition: 69%
[6]
  inhibition: 100%
[7]
  inhibition: 88%
[8]
  inhibition: 63%
[9]
  inhibition: 97%
[10]
  inhibition: 100%
[11]
  inhibition: 86%
[12]
  inhibition: 100%
[13]
  inhibition: 70%

## O=C(Nc1cccc([C@H]2CCCN(c3ncnc4[nH]ccc34)C2)c1)Nc1ccccc1N1CCCC1
[14]
  inhibition: 88%
[15]
  inhibition: 87%
[16]
  inhibition: 14%
[17]
  inhibition: 0.1%
[18]
  inhibition: 81%
[19]
  inhibition: 72%
[20]
  inhibition: 0.35%
[21]
  inhibition: 99%
[22]
  inhibition: 75%
[23]
  inhibition: 100%
[24]
  inhibition: 97%
[25]
  inhibition: 46%
[26]
  inhibition: 4.3%
[27]
  inhibition: 29%
